Like-named read-outs stand apart in the source and are kept apart here.
Legend:
GluN1/GluN2A = GluN1/GluN2A (Rattus norvegicus, UniProt Q00959); assay: Two electrode voltage clamp recordings, Xenopus laevis oocytes; type: cell-based; details: 100 µM glutamate, 30 µM glycine
GluN1/GluN2B = GluN1/GluN2B (Rattus norvegicus, UniProt Q00960); assay: as above; type: cell-based; details: 100 µM glutamate, 30 µM glycine
GluA1 = GluA1 (Rattus norvegicus, UniProt P19490); assay: as above; type: cell-based; details: co-applied with 100 µM glutamate
[1] = system: GluN2C/D-containing NMDA receptors; assay: Potentiation of NMDA receptors, results stated jointly for both subtypes; type: cell-based, rat; details: for EC50: read-out: EC50, GluN2C/GluN2D stated jointly
GluK2 = GluK2 (Rattus norvegicus, UniProt P42260); assay: Two electrode voltage clamp recordings, Xenopus laevis oocytes; type: cell-based; details: co-applied with 100 µM glutamate
Sequence of GluK2 (P42260 32-908): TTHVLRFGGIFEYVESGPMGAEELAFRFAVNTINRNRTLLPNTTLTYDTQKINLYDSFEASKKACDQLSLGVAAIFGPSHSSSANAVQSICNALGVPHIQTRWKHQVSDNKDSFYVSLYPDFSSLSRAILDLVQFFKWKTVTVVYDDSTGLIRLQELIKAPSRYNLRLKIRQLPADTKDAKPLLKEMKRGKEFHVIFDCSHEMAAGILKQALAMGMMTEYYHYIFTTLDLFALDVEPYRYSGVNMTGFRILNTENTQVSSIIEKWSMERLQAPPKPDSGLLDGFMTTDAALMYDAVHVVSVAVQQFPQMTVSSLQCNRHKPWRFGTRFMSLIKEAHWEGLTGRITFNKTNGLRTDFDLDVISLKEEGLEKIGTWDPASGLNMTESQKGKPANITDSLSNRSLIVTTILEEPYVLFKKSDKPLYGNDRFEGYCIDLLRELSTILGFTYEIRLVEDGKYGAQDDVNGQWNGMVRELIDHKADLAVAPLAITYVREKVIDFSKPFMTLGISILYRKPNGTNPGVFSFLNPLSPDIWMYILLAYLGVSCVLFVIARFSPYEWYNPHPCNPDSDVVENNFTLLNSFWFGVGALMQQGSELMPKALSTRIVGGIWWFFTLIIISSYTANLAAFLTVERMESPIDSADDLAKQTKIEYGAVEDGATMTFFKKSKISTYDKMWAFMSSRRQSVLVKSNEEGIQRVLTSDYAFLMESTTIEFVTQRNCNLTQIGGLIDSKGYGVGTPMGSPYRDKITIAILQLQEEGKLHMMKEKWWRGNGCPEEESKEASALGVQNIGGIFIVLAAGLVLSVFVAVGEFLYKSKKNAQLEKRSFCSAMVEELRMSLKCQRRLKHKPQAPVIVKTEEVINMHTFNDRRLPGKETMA

[2] = system: GluN2C/D-containing NMDA receptors; details: cited from earlier work
[3] = Stability of potentiator activity of compound solution; type: physicochemical
GluN1/GluN2C [4] = target: GluN1/GluN2C (Rattus norvegicus, UniProt P35439+Q00961); assay: Two electrode voltage clamp recordings, Xenopus laevis oocytes; type: cell-based
Sequence of GluN1/GluN2C (Rattus norvegicus, UniProt P35439+Q00961) (Q00961 20-1237, other chains not shown): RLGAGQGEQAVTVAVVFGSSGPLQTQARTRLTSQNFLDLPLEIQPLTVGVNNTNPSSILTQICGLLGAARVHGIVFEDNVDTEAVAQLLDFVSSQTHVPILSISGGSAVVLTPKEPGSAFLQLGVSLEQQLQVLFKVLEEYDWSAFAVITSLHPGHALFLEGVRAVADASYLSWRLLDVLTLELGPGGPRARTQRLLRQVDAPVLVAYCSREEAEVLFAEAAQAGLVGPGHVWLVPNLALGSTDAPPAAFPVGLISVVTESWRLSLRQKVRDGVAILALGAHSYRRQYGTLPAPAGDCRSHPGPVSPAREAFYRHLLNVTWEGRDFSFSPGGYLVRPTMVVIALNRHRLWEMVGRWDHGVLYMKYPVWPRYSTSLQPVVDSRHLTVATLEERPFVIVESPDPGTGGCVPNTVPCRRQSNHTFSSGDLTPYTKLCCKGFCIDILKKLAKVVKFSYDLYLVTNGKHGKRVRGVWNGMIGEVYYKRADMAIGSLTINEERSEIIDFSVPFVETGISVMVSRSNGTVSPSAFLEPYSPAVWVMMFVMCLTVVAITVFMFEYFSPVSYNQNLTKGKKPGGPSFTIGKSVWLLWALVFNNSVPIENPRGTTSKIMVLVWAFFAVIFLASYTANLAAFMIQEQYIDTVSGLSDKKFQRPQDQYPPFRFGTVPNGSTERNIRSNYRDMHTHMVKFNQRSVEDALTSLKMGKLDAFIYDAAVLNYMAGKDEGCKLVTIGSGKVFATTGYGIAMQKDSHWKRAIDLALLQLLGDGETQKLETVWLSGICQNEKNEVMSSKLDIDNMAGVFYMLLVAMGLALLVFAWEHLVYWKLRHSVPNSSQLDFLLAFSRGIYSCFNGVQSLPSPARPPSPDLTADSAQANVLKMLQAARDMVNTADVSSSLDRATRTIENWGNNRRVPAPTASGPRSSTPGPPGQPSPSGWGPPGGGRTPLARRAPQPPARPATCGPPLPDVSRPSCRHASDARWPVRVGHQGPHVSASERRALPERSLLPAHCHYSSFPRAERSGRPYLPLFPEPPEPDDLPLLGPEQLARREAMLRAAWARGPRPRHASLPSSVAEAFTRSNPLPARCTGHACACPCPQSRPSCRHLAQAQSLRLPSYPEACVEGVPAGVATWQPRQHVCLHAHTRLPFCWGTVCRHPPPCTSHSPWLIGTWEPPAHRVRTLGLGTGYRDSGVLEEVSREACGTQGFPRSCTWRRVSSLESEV

GluN1/GluN2D = GluN1/GluN2D (Rattus norvegicus, UniProt Q62645); assay: as above; type: cell-based; details: for activity at GluN1/GluN2D: 100 µM glutamate, 30 µM glycine
Sequence of GluN1/GluN2D (Q62645 28-1323, other chains not shown): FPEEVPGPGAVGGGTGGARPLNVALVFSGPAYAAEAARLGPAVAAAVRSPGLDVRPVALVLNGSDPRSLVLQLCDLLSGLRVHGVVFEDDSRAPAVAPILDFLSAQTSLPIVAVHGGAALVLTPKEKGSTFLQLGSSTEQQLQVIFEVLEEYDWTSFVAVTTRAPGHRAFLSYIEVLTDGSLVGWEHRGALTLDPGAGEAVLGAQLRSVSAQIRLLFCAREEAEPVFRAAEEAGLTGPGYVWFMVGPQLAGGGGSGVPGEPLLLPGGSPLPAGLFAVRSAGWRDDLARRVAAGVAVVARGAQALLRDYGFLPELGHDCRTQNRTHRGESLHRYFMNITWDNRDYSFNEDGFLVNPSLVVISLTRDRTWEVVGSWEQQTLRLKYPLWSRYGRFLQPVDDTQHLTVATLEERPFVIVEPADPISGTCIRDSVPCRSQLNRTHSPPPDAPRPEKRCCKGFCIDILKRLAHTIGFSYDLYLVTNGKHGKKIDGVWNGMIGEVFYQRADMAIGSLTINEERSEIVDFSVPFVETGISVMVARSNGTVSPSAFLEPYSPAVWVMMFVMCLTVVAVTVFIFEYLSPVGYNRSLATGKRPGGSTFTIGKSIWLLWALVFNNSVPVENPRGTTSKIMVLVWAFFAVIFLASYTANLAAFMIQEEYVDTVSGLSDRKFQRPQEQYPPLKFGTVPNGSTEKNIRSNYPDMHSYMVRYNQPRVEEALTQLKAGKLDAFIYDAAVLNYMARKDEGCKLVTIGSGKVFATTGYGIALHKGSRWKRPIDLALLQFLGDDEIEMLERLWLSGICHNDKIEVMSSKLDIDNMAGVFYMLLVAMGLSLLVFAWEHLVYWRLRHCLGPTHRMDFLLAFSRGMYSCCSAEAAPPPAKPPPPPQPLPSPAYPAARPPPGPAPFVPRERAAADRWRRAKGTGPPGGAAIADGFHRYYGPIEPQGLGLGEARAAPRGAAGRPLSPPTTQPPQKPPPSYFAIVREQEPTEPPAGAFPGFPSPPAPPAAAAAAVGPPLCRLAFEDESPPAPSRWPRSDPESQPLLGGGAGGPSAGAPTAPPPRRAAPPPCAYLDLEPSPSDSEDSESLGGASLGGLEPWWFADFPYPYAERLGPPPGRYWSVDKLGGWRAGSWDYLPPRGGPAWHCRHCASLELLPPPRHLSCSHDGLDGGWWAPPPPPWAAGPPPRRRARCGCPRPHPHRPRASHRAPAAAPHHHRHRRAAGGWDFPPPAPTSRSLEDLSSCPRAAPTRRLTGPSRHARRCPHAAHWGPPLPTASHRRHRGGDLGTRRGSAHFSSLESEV

GluN1/GluN2C [5] = target: GluN1/GluN2C (Rattus norvegicus, UniProt Q00961); assay: as above; type: cell-based; details: for activity at GluN1/GluN2C: 100 µM glutamate, 30 µM glycine
Sequence of GluN1/GluN2C (Rattus norvegicus, UniProt Q00961) (Q00961 20-1237, other chains not shown): as the sequence (Q00961 20-1237, other chains not shown) above

[6] = system: brain benzodiazepine site; type: binding; details: 5 µM compound 83; n=4
[7] = system: peripheral benzodiazepine site; type: binding; details: 5 µM compound 83; n=4
[8] = system: GABA, glycine, serotonin, nicotinic acetylcholine, AMPA, kainate, and purinergic receptors; type: cell-based
κ opioid receptors = κ opioid receptors (Homo sapiens, UniProt P41145); type: binding; details: 5 µM compound 83
sigma receptor σ2 = type: binding; details: 5 µM compound 83; n=4
sigma receptor σ1 = type: binding; details: 5 µM compound 83; n=4
[9] = maximally effective concentrations of glutamate and glycine
[10] = 10 µM compound co-applied with 100 µM glutamate and 30 µM glycine

Sequence of GluN1/GluN2A (Q00959 23-1464, other chains not shown): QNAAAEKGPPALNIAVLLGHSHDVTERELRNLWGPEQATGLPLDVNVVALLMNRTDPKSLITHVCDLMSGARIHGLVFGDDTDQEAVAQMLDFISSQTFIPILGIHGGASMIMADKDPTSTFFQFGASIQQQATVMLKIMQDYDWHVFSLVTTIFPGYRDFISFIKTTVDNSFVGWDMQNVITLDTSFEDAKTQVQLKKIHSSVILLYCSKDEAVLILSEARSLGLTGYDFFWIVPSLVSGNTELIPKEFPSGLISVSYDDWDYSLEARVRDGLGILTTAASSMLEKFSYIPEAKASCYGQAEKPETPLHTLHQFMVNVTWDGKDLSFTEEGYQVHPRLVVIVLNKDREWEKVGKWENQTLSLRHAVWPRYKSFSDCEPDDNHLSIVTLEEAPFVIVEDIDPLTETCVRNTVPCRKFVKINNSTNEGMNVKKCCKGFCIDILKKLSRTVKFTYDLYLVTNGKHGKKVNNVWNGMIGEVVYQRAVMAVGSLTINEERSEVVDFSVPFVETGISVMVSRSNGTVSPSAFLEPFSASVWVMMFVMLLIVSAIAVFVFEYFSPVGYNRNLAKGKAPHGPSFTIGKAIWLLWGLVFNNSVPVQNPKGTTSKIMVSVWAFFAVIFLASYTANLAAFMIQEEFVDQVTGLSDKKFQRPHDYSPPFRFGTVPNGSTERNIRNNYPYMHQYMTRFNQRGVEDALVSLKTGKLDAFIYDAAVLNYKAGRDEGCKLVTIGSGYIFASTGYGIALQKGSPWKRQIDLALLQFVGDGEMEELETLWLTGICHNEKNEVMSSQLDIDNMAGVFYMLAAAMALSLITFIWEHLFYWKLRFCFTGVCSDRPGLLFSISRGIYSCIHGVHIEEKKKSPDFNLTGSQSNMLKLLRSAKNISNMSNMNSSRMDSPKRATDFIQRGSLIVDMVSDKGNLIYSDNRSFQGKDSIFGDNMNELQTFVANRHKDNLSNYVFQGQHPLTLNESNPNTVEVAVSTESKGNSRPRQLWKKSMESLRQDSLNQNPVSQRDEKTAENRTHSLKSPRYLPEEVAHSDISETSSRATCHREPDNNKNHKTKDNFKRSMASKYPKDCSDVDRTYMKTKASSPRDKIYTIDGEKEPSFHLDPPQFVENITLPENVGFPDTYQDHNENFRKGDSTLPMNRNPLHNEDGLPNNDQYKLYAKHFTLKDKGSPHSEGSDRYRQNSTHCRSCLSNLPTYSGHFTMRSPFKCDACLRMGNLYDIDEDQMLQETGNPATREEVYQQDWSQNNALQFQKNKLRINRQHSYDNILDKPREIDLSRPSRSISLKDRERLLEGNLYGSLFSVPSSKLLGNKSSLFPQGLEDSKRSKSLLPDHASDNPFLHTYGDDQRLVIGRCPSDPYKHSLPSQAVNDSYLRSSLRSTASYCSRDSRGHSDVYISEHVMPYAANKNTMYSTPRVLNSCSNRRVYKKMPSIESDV

Row | effect on GluN1/GluN2A responses (GluN1/GluN2A) | effect on GluN1/GluN2B responses (GluN1/GluN2B) | effect on homomeric GluA1 responses (GluA1) | effect on GluK2-mediated currents (GluK2) | activity at GluN1/GluN2D (GluN1/GluN2D) | activity at GluN1/GluN2C (GluN1/GluN2C [5]) | Compound | also measured
1 | no effect | no effect |  |  |  |  | COc1ccc(OC[C@@H]2c3cc(OC)c(OC)cc3CCN2C(=O)c2cccc(Cl)c2)cc1 [2-S, (S)-(3-chlorophenyl)(6,7-dimethoxy-1-((4-methoxyphenoxy)methyl)-3,4-dihydroisoquinolin-2(1H)-yl)methanone] | 
2 |  |  | no effects | no effect |  |  | COc1ccc(OCC2c3cc(OC)c(OC)cc3CCN2C(=O)c2cccc(Cl)c2)cc1 (stereo not shown) [compound 2] | EC50 [1, 9]: 4.6 to 5 µM; enhancement of receptor responses [2]: less than 2 fold; EC50 ([2]; read-out: reported EC50): 3 µM; activity of solution after 24 hours ([3]; 24 hours after making the solution): no activity; activity (potency and efficacy) retained without loss until ([3]; compound solutions tested on GluN1/GluN2C in BHK cells at different time points): 6 h; EC50 (GluN1/GluN2C [4]): 4.6 µM
3 |  |  | no effects | no effect |  |  | COc1ccc(OCC2c3cc(OC)c(OC)cc3CCN2C(=O)c2cccc(Br)c2)cc1 (stereo not shown) [compound 190] | 
4 |  |  | no effects | no effect |  |  | COc1ccc(OCC2c3cc(OC)c(OC)cc3CCN2C(=O)c2cccc(F)c2)cc1 (stereo not shown) [compound 197] | 

Second part, the compound before the results:

Row | Compound | effect on GluN1/GluN2A responses (GluN1/GluN2A) | effect on GluN1/GluN2B responses (GluN1/GluN2B) | effect on homomeric GluA1 responses (GluA1) | effect on GluK2-mediated currents (GluK2) | activity at GluN1/GluN2D (GluN1/GluN2D) | activity at GluN1/GluN2C (GluN1/GluN2C [5]) | also measured
5 | COc1ccc(OCC2c3cc(OC)c(OC)cc3CCN2C(=O)c2ccccc2)cc1 (stereo not shown) [compound 1, (6,7-dimethoxy-1-((4-methoxyphenoxy)methyl)-3,4-dihydroisoquinolin-2(1H)-yl)(phenyl)methanone] |  |  | no effects | no effect |  |  | enhancement of response of GluN2C/D-containing NMDA receptors [1, 9]: 1.5 fold; agonist activity on their own ([1]; without co-agonists): no agonist activity
6 | COc1cc2c(cc1OC)CN(C(=O)c1ccccc1)CC2 [compound 5, (6,7-dimethoxy-3,4-dihydroisoquinolin-2(1H)-yl)(phenyl)methanone] | inactive | inactive | no effects |  | inactive | inactive | 
7 | COc1cc2c(cc1OC)CN(C(=O)c1cccc(Cl)c1)CC2 [compound 6, (3-chlorophenyl)(6,7-dimethoxy-3,4-dihydroisoquinolin-2(1H)-yl)methanone] | inactive | inactive |  |  | inactive | inactive | 
8 | COc1cc2c(cc1OC)CN(C(=O)c1cccc(Br)c1)CC2 [compound 7, (3-bromophenyl)(6,7-dimethoxy-3,4-dihydroisoquinolin-2(1H)-yl)methanone] | inactive | inactive |  |  | inactive | inactive | 
9 | COc1ccc(OCC2c3ccc(OCc4ccccc4)cc3CCN2C(=O)c2cccc(Br)c2)cc1 (stereo not shown) [compound 83, (6-(benzyloxy)-1-((4-methoxyphenoxy)methyl)-3,4-dihydroisoquinolin-2(1H)-yl)(3-bromophenyl)methanone] |  |  |  |  |  |  | inhibition of ligand binding [6]: less than 50%; EC50 [1, 9]: 0.3 to 0.4 µM; inhibition of ligand binding [7]: less than 50%; selectivity for GluN2C or GluN2D compared to these receptors [8]: approximately 100 fold; inhibition of off-target receptors ([8]; 3 µM compound 83): less than 10%; potentiation of off-target receptors ([8]; 3 µM compound 83): < 5%; initial screen at κ opioid receptors (κ opioid receptors): significant inhibition; inhibition of ligand binding (sigma receptor σ2): less than 50%; inhibition of ligand binding (sigma receptor σ1): less than 50%
10 | COc1ccc(OCC2c3cc(OC)c(OC)cc3CCN2C(=O)c2cccs2)cc1 (stereo not shown) [compound 203] |  |  |  |  | no or minimal potentiating effects | weak activity | 
11 | COC(=O)c1ccc(OCC2c3cc(OC)c(OC)cc3CCN2C(=O)c2cccc(Br)c2)cc1 (stereo not shown) [compound 207] |  |  |  |  |  | weakly active | 
12 | (1-((4-(benzyloxy)phenoxy)methyl)-6,7-dimethoxy-3,4-dihydroisoquinolin-2(1H)-yl)(3-chlorophenyl)methanone [compound 109] |  |  |  |  |  |  | I10 µM / ICONTROL (mean ± SEM, %) GluN2D (GluN1/GluN2D; [10]): 93 ± 2.5%; activity on GluN2C- or GluN2D-containing receptors [1]: no detectable activity; I10 µM / ICONTROL (mean ± SEM, %) GluN2C (GluN1/GluN2C [5]; [10]): 93 ± 1.6%
